Consider twelve compounds from patent US9499550B2 (BRISTOL-MYERS SQUIBB COMPANY, priority 2012, dated 2016).

Where only a bound is given, the exact number is not on record here.

The test system of assay [1] is HCV genotype 1b (Con1) replicon in HUH-7 cells. Nature of the assay: HCV replicon luciferase reporter assay, genotype 1b. Type of assay: cell-based. The conditions noted are these: Hepatitis C virus, Huh-7, 72 h, HCV genotype 1b replicon luciferase assay, 3 days incubation, range class, read-out: LE_1b (EC50, range). In a few lines:
(§1)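 Replicon inhibition for both genotypes was measured as Renilla luciferase signal (EnduRen, 7.5 μM final, 2 h) after 3-day, 37° C exposure of replicon-bearing HUH-7 cells in 4% FCS DMEM, 0.5% DMSO. The 1b construct carries S1179I; the 1a H77 construct carries P1496L and S2204I. Twenty-point, 3-fold dilutions were fitted four-parametrically for EC50, and CC50 was taken from multiplexed Cell Titer-Blue.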
(Replicon systems follow genome replication, usually without infectious particles.)

In assay [2] the test system is HCV genotype 1a (H77 strain) replicon in HUH-7 cells. Nature of the assay: HCV replicon luciferase reporter assay, genotype 1a. The class given is cell-based. As to conditions: Hepatitis C virus, Huh-7, 72 h, HCV genotype 1a replicon luciferase assay, 3 days incubation, range class, read-out: LE_1a (EC50, range). The gist of the method:
as §1

Regarding `COc1cnc(O[C@@H]2C[C@H]3C(=O)N[C@]4(C(=O)NS(=O)(=O)C5(CF)CC5)C[C@H]4/C=C\CC[C@@H](C)C[C@@H](C)[C@H](NC(=O)OC4(C)COC4)C(=O)N3C2)c2ccccc12` [Compound 1045, 3-methyloxetan-3-yl ((2R,6S,7R,9R,13aS,14aR,16aS,Z)-14a-(((1-(fluoromethyl)cyclopropyl)sulfonyl)carbamoyl)-2-((4-methoxyisoquinolin-1-yl)oxy)-7,9-dimethyl-5,16-dioxo-1,2,3,5,6,7,8,9,10,11,13a,14,14a,15,16,16a-hexadecahydrocyclopropa[e]pyrrolo[1,2-a][1,4]diazacyclopentadecin-6-yl)carbamate], the EC50 in assay [1] and in assay [2] was under 5.46 nM in each case.

Turning to `COc1cnc(O[C@@H]2C[C@H]3C(=O)N[C@]4(C(=O)NS(=O)(=O)C5(CF)CC5)C[C@H]4/C=C\CC[C@@H](C)C[C@@H](C)[C@H](NC(=O)OC4(C(F)(F)F)COC4)C(=O)N3C2)c2ccccc12` [Compound 1046, 3-(trifluoromethyl)oxetan-3-yl ((2R,6S,7R,9R,13aS,14aR,16aS,Z)-14a-(((1-(fluoromethyl)cyclopropyl)sulfonyl)carbamoyl)-2-((4-methoxyisoquinolin-1-yl)oxy)-7,9-dimethyl-5,16-dioxo-1,2,3,5,6,7,8,9,10,11,13a,14,14a,15,16,16a-hexadecahydrocyclopropa[e]pyrrolo[1,2-a][1,4]diazacyclopentadecin-6-yl)carbamate], the EC50 in assay [1] and in assay [2] was under 5.46 nM in each case.

Take `COc1cnc(O[C@@H]2C[C@H]3C(=O)N[C@]4(C(=O)NS(=O)(=O)C5(CF)CC5)C[C@H]4/C=C\CC[C@H](C)C[C@@H](C)[C@H](NC(=O)OC4(C(F)(F)F)CCOCC4)C(=O)N3C2)c2ccccc12` [Compound 1047, 4-(trifluoromethyl)tetrahydro-2H-pyran-4-yl((2R,6S,7R,9S,13aS,14aR,16aS,Z)-14a-(((1-(fluoromethyl)cyclopropyl)sulfonyl)carbamoyl)-2-((4-methoxyisoquinolin-1-yl)oxy)-7,9-dimethyl-5,16-dioxo-1,2,3,5,6,7,8,9,10,11,13a,14,14a,15,16,16a-hexadecahydrocyclopropa[e]pyrrolo[1,2-a][1,4]diazacyclopentadecin-6-yl)carbamate]: the EC50 in assay [1] and in assay [2] was 4.82 to 103 nM each time.

As to `COc1cnc(O[C@@H]2C[C@H]3C(=O)N[C@]4(C(=O)NS(=O)(=O)C5(CF)CC5)C[C@H]4/C=C\CC[C@@H](C)C[C@@H](C)[C@H](NC(=O)OC4(C(F)(F)F)CCOCC4)C(=O)N3C2)c2ccccc12` [Compound 1048, 4-(trifluoromethyl)tetrahydro-2H-pyran-4-yl((2R,6S,7R,9R,13aS,14aR,16aS,Z)-14a-(((1-(fluoromethyl)cyclopropyl)sulfonyl)carbamoyl)-2-((4-methoxyisoquinolin-1-yl)oxy)-7,9-dimethyl-5,16-dioxo-1,2,3,5,6,7,8,9,10,11,13a,14,14a,15,16,16a-hexadecahydrocyclopropa[e]pyrrolo[1,2-a][1,4]diazacyclopentadecin-6-yl)carbamate], the EC50 in assay [1] and in assay [2] was under 5.46 nM in each case.

As to `COCC(C)(C)OC(=O)N[C@@H]1C(=O)N2C[C@H](Oc3ncc(OC)c4ccccc34)C[C@H]2C(=O)N[C@]2(C(=O)NS(=O)(=O)C3(CF)CC3)C[C@H]2/C=C\CC[C@H](C)C[C@H]1C` [Compound 1049, 1-methoxy-2-methylpropan-2-yl((2R,6S,7R,9S,13aS,14aR,16aS,Z)-14a-(((1-(fluoromethyl)cyclopropyl)sulfonyl)carbamoyl)-2-((4-methoxyisoquinolin-1-yl)oxy)-7,9-dimethyl-5,16-dioxo-1,2,3,5,6,7,8,9,10,11,13a,14,14a,15,16,16a-hexadecahydrocyclopropa[e]pyrrolo[1,2-a][1,4]diazacyclopentadecin-6-yl)carbamate], the EC50 in assay [1] and in assay [2] was 4.82 to 103 nM in each case.

For the compound `COCC(C)(C)OC(=O)N[C@@H]1C(=O)N2C[C@H](Oc3ncc(OC)c4ccccc34)C[C@H]2C(=O)N[C@]2(C(=O)NS(=O)(=O)C3(CF)CC3)C[C@H]2/C=C\CC[C@@H](C)C[C@H]1C` [Compound 1050, 1-methoxy-2-methylpropan-2-yl((2R,6S,7R,9R,13aS,14aR,16aS,Z)-14a-(((1-(fluoromethyl)cyclopropyl)sulfonyl)carbamoyl)-2-((4-methoxyisoquinolin-1-yl)oxy)-7,9-dimethyl-5,16-dioxo-1,2,3,5,6,7,8,9,10,11,13a,14,14a,15,16,16a-hexadecahydrocyclopropa[e]pyrrolo[1,2-a][1,4]diazacyclopentadecin-6-yl)carbamate], the EC50 in assay [1] and in assay [2] was under 5.46 nM in each case.

In the case of `COc1cnc(O[C@@H]2C[C@H]3C(=O)N[C@]4(C(=O)NS(=O)(=O)C5(CF)CC5)C[C@H]4/C=C\CC[C@H](C)C[C@@H](C)[C@H](NC(=O)OC4(C)CCOCC4)C(=O)N3C2)c2ccccc12` [Compound 1051, 4-methyltetrahydro-2H-pyran-4-yl((2R,6S,7R,9S,13aS,14aR,16aS,Z)-14a-(((1-(fluoromethyl)cyclopropyl)sulfonyl)carbamoyl)-2-((4-methoxyisoquinolin-1-yl)oxy)-7,9-dimethyl-5,16-dioxo-1,2,3,5,6,7,8,9,10,11,13a,14,14a,15,16,16a-hexadecahydrocyclopropa[e]pyrrolo[1,2-a][1,4]diazacyclopentadecin-6-yl)carbamate], the EC50 in assay [1] and in assay [2] was 4.82 to 103 nM each time.

Turning to `COc1cnc(O[C@@H]2C[C@H]3C(=O)N[C@]4(C(=O)NS(=O)(=O)C5(CF)CC5)C[C@H]4/C=C\CC[C@@H](C)C[C@@H](C)[C@H](NC(=O)OC4(C)CCOCC4)C(=O)N3C2)c2ccccc12` [Compound 1052, 4-methyltetrahydro-2H-pyran-4-yl((2R,6S,7R,9R,13aS,14aR,16aS,Z)-14a-(((1-(fluoromethyl)cyclopropyl)sulfonyl)carbamoyl)-2-((4-methoxyisoquinolin-1-yl)oxy)-7,9-dimethyl-5,16-dioxo-1,2,3,5,6,7,8,9,10,11,13a,14,14a,15,16,16a-hexadecahydrocyclopropa[e]pyrrolo[1,2-a][1,4]diazacyclopentadecin-6-yl)carbamate], the EC50 in assay [1] is under 5.46 nM; in assay [2], 4.82 to 103 nM.

Consider `COc1cnc(O[C@@H]2C[C@H]3C(=O)N[C@]4(C(=O)NS(=O)(=O)C5(CF)CC5)C[C@H]4/C=C\CC[C@H](C)C[C@@H](C)[C@H](NC(=O)OC4(C(C)C)COC4)C(=O)N3C2)c2ccccc12` [Compound 1053, 3-isopropyloxetan-3-yl ((2R,6S,7R,9S,13aS,14aR,16aS,Z)-14a-(((1-(fluoromethyl)cyclopropyl)sulfonyl)carbamoyl)-2-((4-methoxyisoquinolin-1-yl)oxy)-7,9-dimethyl-5,16-dioxo-1,2,3,5,6,7,8,9,10,11,13a,14,14a,15,16,16a-hexadecahydrocyclopropa[e]pyrrolo[1,2-a][1,4]diazacyclopentadecin-6-yl)carbamate], for which the EC50 in assay [1] and in assay [2] was 4.82 to 103 nM throughout.

For `COc1cnc(O[C@@H]2C[C@H]3C(=O)N[C@]4(C(=O)NS(=O)(=O)C5(CF)CC5)C[C@H]4/C=C\CC[C@@H](C)C[C@@H](C)[C@H](NC(=O)OC4(C(C)C)COC4)C(=O)N3C2)c2ccccc12` [Compound 1054, 3-isopropyloxetan-3-yl ((2R,6S,7R,9R,13aS,14aR,16aS,Z)-14a-(((1-(fluoromethyl)cyclopropyl)sulfonyl)carbamoyl)-2-((4-methoxyisoquinolin-1-yl)oxy)-7,9-dimethyl-5,16-dioxo-1,2,3,5,6,7,8,9,10,11,13a,14,14a,15,16,16a-hexadecahydrocyclopropa[e]pyrrolo[1,2-a][1,4]diazacyclopentadecin-6-yl)carbamate], the EC50 in assay [1] and in assay [2] was under 5.46 nM each time.

As for `COc1cnc(O[C@@H]2C[C@H]3C(=O)N[C@]4(C(=O)NS(=O)(=O)C5(CF)CC5)C[C@H]4/C=C\CC[C@H](C)C[C@@H](C)[C@H](NC(=O)OC4(C)CCCOC4)C(=O)N3C2)c2ccccc12` (stereo partly drawn) [Compound 1055, 3-methyltetrahydro-2H-pyran-3-yl((2R,6S,7R,9S,13aS,14aR,16aS,Z)-14a-(((1-(fluoromethyl)cyclopropyl)sulfonyl)carbamoyl)-2-((4-methoxyisoquinolin-1-yl)oxy)-7,9-dimethyl-5,16-dioxo-1,2,3,5,6,7,8,9,10,11,13a,14,14a,15,16,16a-hexadecahydrocyclopropa[e]pyrrolo[1,2-a][1,4]diazacyclopentadecin-6-yl)carbamate], the EC50 in assay [1] and in assay [2] was under 5.46 nM each time.

`COc1cnc(O[C@@H]2C[C@H]3C(=O)N[C@]4(C(=O)NS(=O)(=O)C5(CF)CC5)C[C@H]4/C=C\CC[C@@H](C)C[C@@H](C)[C@H](NC(=O)OC4(C)CCCOC4)C(=O)N3C2)c2ccccc12` (stereo partly drawn) [Compound 1056, 3-methyltetrahydro-2H-pyran-3-yl((2R,6S,7R,9R,13aS,14aR,16aS,Z)-14a-(((1-(fluoromethyl)cyclopropyl)sulfonyl)carbamoyl)-2-((4-methoxyisoquinolin-1-yl)oxy)-7,9-dimethyl-5,16-dioxo-1,2,3,5,6,7,8,9,10,11,13a,14,14a,15,16,16a-hexadecahydrocyclopropa[e]pyrrolo[1,2-a][1,4]diazacyclopentadecin-6-yl)carbamate]: the EC50 in assay [1] and in assay [2] was under 5.46 nM in each case.

The EC50 is the midpoint of the concentration-response curve.
